What was measured:
[1] = Flash point of the additive; format: physicochemical; details: neat additive
[2] = neat additive
Excerpt: Additional characteristics of the exemplary additives and controls are shown below in Table 9. […] The Control and Control 2 are the presented formula without an additive included. […] Blend 1 is the presented formula with a blend of rosin ester tackifier and fatty acid ester used as a control additive. For Control 2 and Inventive Ex. 1-Adj, the first pass and second pass were mixed in the mixer, but the final pass was mixed on the mill. Inventive Ex. 1-Adj was split into three (3) to allow for three (3) different cure adjustments to try to increase the Ts2 (the […] time for the viscosity to increase 2 units above minimum torque (ML)), slightly reduce Tc90 (the time it takes to get to 90% of the maximum state of cure/cross-linking (MH or maximum torque)), and increase the maximum torque (MH) to more closely match the Moving Die Rheometer (MDR) curve of the control compound.

[3] = Pour point of the additive; format: physicochemical; set-up: unit not given here; details: neat additive

| Compound | Flash Point [1] | Pour Point [3] | Water Solubility [2] |
| --- | --- | --- | --- |
| CCCCCCCC/C=C\CCCCCCCC1=NCCN1CCN [Inventive Ex. 2, diethylenetriamine (DETA) oleic acid imidazoline] | >200 C. | −27 | Partial ~2% |
| CCCCCCCC/C=C\CCCCCCCC(=O)NCCNCCNC(=O)CCCCCCC/C=C\CCCCCCCC [Inventive Ex. 3, diethylenetriamine (DETA) oleic acid bisamide] | >200 C. | 78 | none |

Second part, led by results:

| Flash Point [1] | Pour Point [3] | Compound | Water Solubility [2] |
| --- | --- | --- | --- |
| 113 C. | 0 | CCCCCCCC/C=C\CCCCCCCC(=O)NCCCN(C)C [Inventive Ex. 6, dimethylaminopropylamine (DMAPA) oleic acid amidoamine] |  |
| >200 C. | 36 | CCCCCCCC/C=C\CCCCCCCC(=O)NCCNCCN [Inventive Ex. 1, diethylenetriamine (DETA) oleic acid amidoamine] |  |
| >200 C. | −12 | tetraethylenepentamine (TEPA) oleic acid amidoamine [Inventive Ex. 5] |  |

— patent US20250109275A1, “AMINE FATTY ACID ADDUCTS AS TIRE COMPOUNDING ADDITIVES” (priority 2023, published 2025)
